Reference: BigSolDB 2.1

Nc1ncnc2nc[nH]c12
solubility (mole fraction)
Conditions	278.15 K	283.15 K	288.15 K	293.15 K	298.15 K	303.15 K	308.15 K	313.15 K	318.15 K
in DMF	0.00192	0.00205	0.00217	0.00232	0.00246	0.00262	0.00278	0.00295	0.00312
in DMSO	–	–	–	0.0111	0.0117	0.0124	0.0131	0.0137	0.0144
in NMP	0.0095	0.00971	0.0099	0.0101	0.0103	0.0105	0.0107	0.0109	0.0112
in propylene glycol	0.0106	0.0108	0.0109	0.0111	0.0112	0.0114	0.0115	0.0117	0.0118
in water	5.43e-05	6.88e-05	8.54e-05	0.000108	0.000134	0.000171	0.000216	0.000264	0.000321
